According to US7041819B2, “Halogenated calixpyrroles and uses thereof” (Board of Regents, The University of Texas System, priority 1996, dated 2006):

Tests used:
[1] = 1H NMR titration in CD2Cl2; assay type: binding; settings: tetrabutylammonium salt 0.1M added to 10 mM receptor
[2] = 1H NMR titration in CD2Cl2; assay type: binding; settings: for Stability Constant, Dihydrogen phosphate: tetrabutylammonium salt 0.1M added to 10 mM receptor; for Stability Constant, Dibiphosphate: tetrabutylammonium salt 0.03 M added to 3 mM receptor; for Stability Constants, Dihydrogen phosphate: Table 4, 0.1 M salt added to 10 mM receptor, value of 28 estimated
[3] = 1H NMR titration in CD2Cl2; settings: for Stability Constant, Fluoride: CD2Cl2
[4] = 1H NMR titration in CD2Cl2; settings: for Stability Constant, Chloride / Stability Constants, Chloride: CD2Cl2; for Stability Constants, Chloride: Table 4, tetrabutylammonium salt 0.1 M added to 10 mM receptor
[5] = 1H NMR titration in CD2Cl2; assay type: binding; settings: for Stability Constants, Hydrogen sulfate: Table 4, 0.1 M salt added to 10 mM receptor
[6] = 1H NMR titration in CD2Cl2; assay type: binding; settings: tetrabutylammonium salt 0.1M added to 10 mM receptor; remark: listed apart in the source
[7] = NMR titration with neutral substrates in benzene-d6; assay type: binding; settings: benzene-d6 at 298 K; 1 at ca. 4 × 10^−3 M
Excerpt: Substrate Binding in Solution. The binding of neutral molecules to calix[4]pyrrole in the solid state prompted the present inventors to quantify the binding affinities of calix[4]pyrrole to a number of hydrogenbinding neutral molecules. Table 6 illustrates the varying degrees of affinity to which calix[4]pyrrole binds to various hydrogen binding compounds.

[8] = Anion binding affinity compared with parent calix[4]pyrrole; settings: 13 and 29 vs compound 2; 14 and 28 vs compound 1
Excerpt: These types of compounds are useful as HPLC column media since low affinity constants and fast complexation-decomplexation rates generally lead to efficient separation of substrates (see Example 10).
Receptors with an increased anion binding ability such as 14 are useful as anion sequestering agents (e.g., in removal of phosphate and nitrate pollutants from aqueous environments) (see Example 12) or as synthons in reactions to produce further modified calix[4]pyrroles. The present inventors envision this system will be useful as a precursor to a calix[m]pyridino[n]pyrrole or a calix[m]pyridine.
The attachment of electron-donating substituents (such as methoxy) to the β-position (carbon or C-rim of the calixpyrrole) decreases the stability constants of compound 13 relative to compound 2. However attachment of electron-withdrawing substituents (such as bromine) to the carbon-rim has increased the stability constants of compound 14 relative to compound 1.
This increased binding affinity towards anions was not observed for the Substituted amide substituted mesooctamethylcalix[4]pyrrole 28 when compared to the compound 1. A possible reason is that the carboxy ‘tail” is not long enough to swing around and contribute to the binding of the anion.

[9] = Stability under acidic conditions; assay type: physicochemical; settings: for stability under conditions of acid catalysis at higher temperature: 64° C., within 24 h; for stability under conditions of acid catalysis identical to those of preparation: purified samples, 24 hours, ambient temperature
Procedure: An advantage of 44 is that in contrast to its simple all-hydrogen analogue 43 it is stable upon exposure to acidic aqueous environments (down to pH 3 or 4 for >24 hours). This makes this system particularly useful for anion recognition, binding, sensing, transport, and extraction applications described in Examples 4, 8, 10, 11, 12, and 15.
A further advantage of the calix[n]pyrroles is that they are stable at a wide range of temperatures, especially at neutral or basic conditions. Under acidic conditions and extreme high or low temperatures, the meso linkage may degrade. A particular attribute of the fluorinated calix[n]pyrroles 44, 46, and 48 is that they are very stable under acidic conditions.
This latter finding is consistent with compounds 46 and 48 being kinetically stable at ambient temperature but not at higher temperatures.

[10] = Binding constant in wet acetonitrile
Procedure: Binding constants vary with the solvent used for the binding study. Note that the solvent used for the data of Table 2 of Example 10 was dichloromethane whereas the solvent used for the studies herein was acetonitrile. In addition, a binding constant of 12,300 M^−1 was determined for the binding of pyrophosphate to 44 in wet acetonitrile.

[11] = 1H and 19F NMR titration in acetonitrile-d3 (0.5% v/v D2O); assay type: binding; settings: wet acetonitrile
Excerpt: ^1H and ^19F NMR Titrations. The receptor 44, as a 0.014 M acetonitrile-d3 (0.5% v/v D2O) solution, was titrated by addition of concentrated acetonitrile-d3 (0.5% v/v D2O) solutions of the anions in question (in the form of their tetrabutylammonium salts). In order to account for dilution effects, these anion solutions also contained receptor 44 at its initial concentration. The data were fit to a 1:1 binding profile according to the method of Wilcox (in Frontiers in Supramolecular Organic Chemistry and Photochemistry; Schneider, H.-J., Dürr, H., Eds.; VCH: Weinheim, 1991) using changes in both the NH and β-F pyrrolic resonances in the ^1H and ^19F NMR spectra, respectively, that were assigned to the portion of the total receptor concentration that was considered to be monomeric. Specifically, the change in the position of the peaks initially at 7.24 ppm (^1H NMR) and −177.03 ppm (^19F NMR) were followed. Integration of the two pyrrolic NH resonances (corresponding to calix[4]pyrroles that are “free” and bound to the next receptor molecule) made it possible to estimate the relative concentration of the monomeric fraction in the acetonitrile-d3 (0.5% v/v D2O) solutions being subject to analysis. This estimated monomeric receptor concentration was used to calculate the affinity constants. […] Estimated errors were <20%.
The presence of two different receptor forms in solution precluded the use of Job plots to analyze binding stoichiometries. […] This increased selectivity is summarized in terms of the ratio of the binding constants, R44/43. (Table 9). Separate from the issue of binding to the monomeric form, but complicating the analyses somewhat was the finding that the addition of phosphate and fluoride to wet acetonitrile solutions of 44 led to deaggregation.
^1H and ^19F NMR spectroscopic titrations. Receptor 46, as a 0.014 M acetonitrile-d3 (0.5% v/v D2O) solution, was titrated by addition of concentrated acetonitrile-d3 (0.5% v/v D2O) solutions of the anions in question (in the form of their tetrabutylammonium salts). In order to account for dilution effects, these anion solutions also contained receptor 46 at its initial concentration. The data were fit to a 1:1 binding profile according to the method of Wilcox (Wilcox, C. S. in Frontiers in Supramolecular Organic Chemistry and Photochemistry; Schneider, H.-J., Dürr, H., Eds.; VCH: Weinheim, 1991) using changes in both the NH and β-F pyrrolic resonances in the ^1H and ^19F NMR spectra, respectively.
The binding properties of 46 and 48 were studied.

[12] = tetrabutylammonium fluoride trihydrate 0.1M added to 10 mM receptor
[13] = tetrabutylammonium salt 0.1M added to 10 mM receptor
[14] = tetrabutylammonium salt 0.03 M added to 3 mM receptor, value of 14 estimated
[15] = tetrabutylammonium salt 0.03 M added to 3 mM receptor

Compound: CC1(C)c2ccc([nH]2)C(C)(C)c2ccc([nH]2)C(C)(C)c2ccc([nH]2)C(C)(C)c2ccc1[nH]2 [Compound 1, meso-octamethylcalix[4]pyrrole]
- Stability Constant, Bromide [1]: 10 (±0.5) M^−1
- Stability Constant, Dihydrogen phosphate [2]: 97 (±3.9) M^−1
- Stability Constant, Fluoride [3, 12]: 17170 (±900) M^−1
- Stability Constant, Chloride [4, 13]: 350 (±5.5) M^−1
- Stability Constant, Hydrogen sulfate [5, 13]: <10 M⁻¹
- Stability Constant, Iodide [6]: <10 M⁻¹
- Ka, 1,1,3,3tetramethylurea [7]: 2.2 ± 0.1 M^1
- Ka, 1,2dimethylimidazole [7]: 5.4 ± 0.3 M^1
- Ka, N,N-dimethylacetamide [7]: 9.0 ± 0.9 M^1
- Ka, N,N-dimethylformamide [7]: 11.3 ± 0.8 M^1
- Ka, N-formylglycine ethyl ester [7]: 13.3 ± 1.0 M^1
- Ka, acetone [7]: 2.2 ± 0.2 M^1
- Ka, benzyl alcohol [7]: 9.7 ± 0.7 M^1
- Ka, dimethyl sulfoxide [7]: 16.2 ± 1.1 M^1
- Ka, ethanol [7]: 10.7 ± 0.7 M^1
- Ka, isopropyl alcohol [7]: 7.0 ± 0.4 M^1
- Ka, methanol [7]: 12.7 ± 1.0 M^1
- Ka, secbutanol [7]: 6.2 ± 0.4 M^1

Compound: c1cc2[nH]c1C1(CCCCC1)c1ccc([nH]1)C1(CCCCC1)c1ccc([nH]1)C1(CCCCC1)c1ccc([nH]1)C21CCCCC1 [Compound 2, meso-Tetraspirocyclohexylcalix[4]pyrrole, reference compound]
- Stability Constant, Dihydrogen phosphate [2]: <10 M⁻¹
- Stability Constant, Fluoride [3, 12]: 3600 (±395) M^−1
- Stability Constant, Chloride [4, 13]: 117 (±4.0) M^−1

Compound: COc1c2[nH]c(c1OC)C1(CCCCC1)c1[nH]c(c(OC)c1OC)C1(CCCCC1)c1[nH]c(c(OC)c1OC)C1(CCCCC1)c1[nH]c(c(OC)c1OC)C21CCCCC1 [Compound 13, β-Octamethoxy-meso-tetraspirocyclohexylcalix[4]pyrrole]
- Stability Constant, Dibiphosphate [2]: 6.5 (±0.4) × 10^2 M^−1
- Stability Constant, Fluoride [3, 14]: 1.7 (±0.2) × 10^2 M^−1
- Stability Constant, Chloride [4, 15]: <10 M⁻¹
- anion binding affinity relative to parent calix[4]pyrrole [8]: decreased

Compound: CC1(C)c2[nH]c(c(Br)c2Br)C(C)(C)c2[nH]c(c(Br)c2Br)C(C)(C)c2[nH]c(c(Br)c2Br)C(C)(C)c2[nH]c1c(Br)c2Br [Compound 14, β-Octabromo-meso-octamethylcalix[4]pyrrole]
- Stability Constant, Dibiphosphate [2]: <10 M⁻¹
- Stability Constant, Fluoride [3, 14]: 2.7 (±0.4) × 10^4b M^−1
- Stability Constant, Chloride [4, 15]: 4.3 (±0.6) × 10^3 M^−1
- anion binding affinity relative to parent calix[4]pyrrole [8]: increased

Compound: CCCCNC(=O)Cc1cc2[nH]c1C(C)(C)c1ccc([nH]1)C(C)(C)c1ccc([nH]1)C(C)(C)c1ccc([nH]1)C2(C)C [Compound 28, Mono-β-butylamidocalix[4]pyrrole]
- Stability Constants, Dihydrogen phosphate [2]: 80 (±15)^b M^−1
- Stability Constants, Chloride [4]: 405 (±10) M^−1
- Stability Constants, Hydrogen sulfate [5]: <10 M⁻¹
- anion binding affinity relative to parent calix[4]pyrrole [8]: not observed

Compound: CCCCNC(=O)CCCC1(C)c2ccc([nH]2)C2(CCCCC2)c2ccc([nH]2)C2(CCCCC2)c2ccc([nH]2)C2(CCCCC2)c2ccc1[nH]2 (stereo not drawn) [Compound 29, Mono-meso-butylamidocalix[4]pyrrole]
- Stability Constants, Dihydrogen phosphate [2]: 62 (±6) M^−1
- Stability Constants, Chloride [4]: 415(±45) M^−1
- Stability Constants, Hydrogen sulfate [5]: <10 M⁻¹
- anion binding affinity relative to parent calix[4]pyrrole [8]: marked increase

Compound: CC1(C)c2[nH]c(c(F)c2F)C(C)(C)c2[nH]c(c(F)c2F)C(C)(C)c2[nH]c(c(F)c2F)C(C)(C)c2[nH]c1c(F)c2F [Compound 44, Meso-Octamethyl-β-octafluorocalix[4]pyrrole]
- stability under acidic conditions [9]: very stable
- Stability Constant, Pyrophosphate [10]: 12300 M⁻¹
- Stability Constant, Chloride [11]: 10700 M⁻¹

Compound: CC1(C)c2[nH]c(c(F)c2F)C(C)(C)c2[nH]c(c(F)c2F)C(C)(C)c2[nH]c(c(F)c2F)C(C)(C)c2[nH]c(c(F)c2F)C(C)(C)c2[nH]c1c(F)c2F [Compound 46, β-Decafluoro-meso-decamethylcalix[5]pyrrole]
- stability under acidic conditions [9]: very stable
- stability under conditions of acid catalysis at higher temperature [9]: nearly complete conversion to 44
- stability under conditions of acid catalysis identical to those of preparation [9]: remained completely intact
- Stability Constant, Pyrophosphate [10]: 25 000 M^−1
- Stability Constant, Chloride [11]: 41 000 M^−1
- Stability Constant, DMSO [11]: 29 (±3) M^−1

Compound: CC1(C)c2[nH]c(c(F)c2F)C(C)(C)c2[nH]c(c(F)c2F)C(C)(C)c2[nH]c(c(F)c2F)C(C)(C)c2[nH]c(c(F)c2F)C(C)(C)c2[nH]c(c(F)c2F)C(C)(C)c2[nH]c(c(F)c2F)C(C)(C)c2[nH]c(c(F)c2F)C(C)(C)c2[nH]c1c(F)c2F [Compound 48, β-hexadecafluoro-meso-hexadecamethylcalix[8]pyrrole]
- stability under acidic conditions [9]: very stable
- stability under conditions of acid catalysis at higher temperature [9]: nearly complete conversion to 44
- stability under conditions of acid catalysis identical to those of preparation [9]: remained completely intact
- Stability Constant, Pyrophosphate [10]: 28 000 M^−1
- Stability Constant, Chloride [11]: 3 600 M^−1

Compound: meso-tetramethylcalix[4]pyrrole-p-tert-butylcalix[4]arene pseudo dimer [Compound 15]
- changes in the NMR spectrum on addition of tetrabutylammonium fluoride ([3]; dichloromethane-d2, 10.0 equiv.): no changes

Compound: β-diester-meso-octamethylcalix[4]pyrrole [Compound 11]
- interaction with fluoride anion in solution [3]: interact
- interaction with chloride anion in solution [4]: interact

Compound: β-monoester-meso-octamethylcalix[4]pyrrole [Compound 10]
- Stability Constant, Fluoride [3, 14]: 1.1 (±0.2) × 10^3 M^−1
- Stability Constant, Chloride [4, 15]: 47 (±1) M^−1
